Experimental data as given in patent US6028061A, “Angiogenesis inhibitors and use thereof” (Children's Medical Center Corp, priority 1998, dated 2000).
Entries after “also recorded” stand apart in the source; their conditions may differ.

Assays:
FGF-2 [1] = assay: Isothermal titration calorimetry of glycosaminoglycan binding to FGF-2; details: for n, average number of FGF-2 molecules occupying a single glycosaminoglycan chain (stoichiometry) / Kd: 50 mM sodium phosphate pH 7.4, 100 mM NaCl, 25° C; for FGF-2 binding (in words): isothermal titration calorimetry
Protocol: Interaction of glycosaminoglycans and their derivatives with FGF-2. Isothermal titration calorimetry was performed in 50 mM sodium phosphate buffer, pH 7.4, containing 100 mM sodium chloride at 25° C. as previously described (15).
Determination of the FGF-2 binding affinity of glycosaminoglycans and their derivatives. Isothermal titration calorimetry was performed with heparin oligosaccharides, herapin, acharan sulfate and N-sulfoacharan sulfate. The heat of interaction (ΔH) is directly measured in this experiment. From this heat of interaction the Kd, and n (stoichiometry) of interaction can be deduced. The minimum FGF-2 binding site is a tetra- or hexasaccharide. […] The n value is consistent with the molecular weight of each ligand (Table 2).

[2] = tested on: FGF-2 mitogenic activity in F32 cells; assay: FGF-2 mitogenicity assay in F32 cells, absence of added heparin ([3H]-thymidine incorporation; stimulation of FGF-2 activity); assay type: cell-based; details: for [3H]-thymidine incorporation, controls alone: F32 cells, heparin (alone) and FGF-2 (alone) controls
Protocol: (§1) Assay of FGF-2 mitogenic activity, FGF-2 mitogenicity assays were performed in F32 cells that express FGF-receptor 1 (FGF-R1)(16) but no detectable levels of heparan sulfate proteoglycans (17). […] Tested glycosaminoglycans were added in concentrations ranging from 1-5000 ng/ml. Proliferation was measured after 40 h incubation in 200 μl medium (RPM1 1640, 10% heat-inactivated newborn calf serum) in the presence of a 1 μCi/well pulse of [^3 H]-thymidine during the final 6 h of the incubation. Radioactivity incorporated into DNA was quantified by scintillation counting, MTT, 3-[4,5-dimethylthiazol-2-yl]-2,5-diphenyl tetrazolium bromide (Thiazole blue), used to determine cell viability, was from Sigma Chemical (St. Louis, Mo.).
(§2) Influence of glycosaminoglycans and their derivatives on FGF-2 mitogenic activity. The direct influence of acharan sulfate and its derivative on FGF-2 mitogenic activity was measured in the absence of added heparin. […] The effect of acharan sulfate on cell viability was assessed by measuring the formation of a chromogen from MTT, a tetrazolium dye that is converted solely by living cells (18). […] Thus, the inhibition of mitogenicity is not due to toxicity leading to reduced cell number.

FGF-2 [3] = details: cited from earlier work
[4] = tested on: FGF-2 mitogenic activity in F32 cells; assay: FGF-2 mitogenicity assay in F32 cells, presence of 10 ng/ml heparin ([3H]-thymidine incorporation; inhibition of heparin-mediated activity); assay type: cell-based; details: for FGF-2 mitogenicity in the presence of heparin (in words): 10 ng/ml heparin, 150 pM FGF-2, 40 h
Protocol: as §1, §2

F32 cells = assay: MTT cell viability assay; assay type: cell-based; details: 40 h incubation, same concentrations as in the mitogenicity assays
Protocol: as §1, §2

| Substance | n, average number of FGF-2 molecules occupying a single glycosaminoglycan chain (stoichiometry) (FGF-2 [1]) | Kd (FGF-2 [1]) | [3H]-thymidine incorporation, controls alone [2] | FGF-2 binding (in words) (FGF-2 [1]) | FGF-2 mitogenicity in the presence of heparin (in words) [4] | also measured |
| --- | --- | --- | --- | --- | --- | --- |
| FGF-2: growth factor, control alone in F32 mitogenicity assay |  |  | ~ 750 cpm |  |  |  |
| Low molecular weight heparin [reference compound] | 3.6 | 36 nM |  |  |  |  |
| →4)GlcNpAc(1→4)IdoAp2S(1→ [Acharan sulfate] | 13.4 | 4500 nM |  | binds very poorly; also recorded: very weak | markedly decreased the mitogenic activity in a concentration dependent manner; also recorded: inhibited FGF-2 mitogenicity in the presence of heparin | IC50 of inhibition of FGF-2 mitogenicity ([4]; in the presence of 10 ng/ml heparin): ~ 400 ng/ml; cell viability (number of living cells, MTT) (F32 cells): no reduction in the number of living cells; Kd (FGF-2 [1]; listed as acharan sulfate): > 4000 nM |
| →4)GlcNp2S(1→4)IdoAp2S(1→ [N-sulfoacharan sulfate] | 4.4 | 90 nM |  | bind FGF-2 most tightly; also recorded: tightly bound multiple FGF-2 molecules | no discernible effect on FGF-2 mitogenicity induced by heparin | FGF-2 mitogenicity in the presence of heparin (in words) ([4]; listed as N-sulfoacharan): failed to further stimulate FGF-2 mitogenicity; FGF-2 mitogenic activity (in words) ([2]; absence of added heparin): about the same activity as the syndecan-1 ectodomain; also recorded: minimal mitogenic activity compared with that of heparin; activity relative to heparin, fold less active ([2]; absence of added heparin, on a weight basis): about 150 fold |

Further lines, with some results ahead:

| n, average number of FGF-2 molecules occupying a single glycosaminoglycan chain (stoichiometry) (FGF-2 [1]) | Kd (FGF-2 [1]) | Substance | [3H]-thymidine incorporation, controls alone [2] | FGF-2 binding (in words) (FGF-2 [1]) | FGF-2 mitogenicity in the presence of heparin (in words) [4] | also measured |
| --- | --- | --- | --- | --- | --- | --- |
| 1.8 |  | ΔUAp2S(1→[4)GlcNp2S6S(1→4)IdoAp2S(→]m=1-5) [dodecasaccharide, reference compound] |  |  |  |  |
|  | 36 nM | Heparin [reference compound] | ~ 750 cpm | bind FGF-2 most tightly |  | mitogenic activity (literature, in words) (FGF-2 [3]): known to enhance the activity of FGF-2 |
